Here are results for three compounds from patent US20260364168A1, “USE OF PROTEIN KINASE C (PKC) ACTIVATING COMPOUNDS AS AN ADJUVANT” (priority 2022, published 2026).

Each structure is given as a SMILES string. Where two headings read alike, the source gives them in different places.

For data set [1], the system named is DC cells. As to conditions: Yan et al. 2010; cited from earlier work.
Data set [2] relates to antigen-specific T cell responses. As to conditions: Yan et al. 2010; cited from earlier work.
For data set [3], the system named is human PBMC cells. As to the kind of experiment: cytokine/chemokine gene expression (TaqMan) in human PBMC. Conditions: 4 h. On the technique in general: Real-time PCR tracks product formation cycle by cycle.
Experimental: Materials and methods: 100 million frozen human PBMC cells were purchased from Allcells (100 million/vial). The cells were thawed and recovered for one day before 1.5-1.8 million cells in 900 μl RPMI1640 with 10% heat-inactivated FBS were seeded in each well of 24-well plates. Various compounds in DMSO stock (500×) were diluted 50-fold with the same media to make 10× compound stock for most compounds. 1 μL of 5 mg/mL PMA was diluted to 99 μL of the media to make 50 μg/mL PMA. For PMA with ionomycin treatment condition, 1.5 μL of 50 μg/mL PMA and 3 μL of 500 μg/mL ionomycin were added to 145.5 μL of the media to make 10× compound stock. Sources of the compounds are as follows: PMA from Abcam (Abcam #ab120297); Ionomycin from Sigma (Sigma #I0634); Resiquimod from Sellect Chem. (Selleckchem #S8133); and LPS from Sigma (Sigma #L6143).
Each treatment condition was performed in duplicates. After treatment, mRNA was extracted from cells and samples from duplicates were combined for TaqMan gene expression assays (ThermoFisher) in triplicates. Expression of 19 genes (IL-1β, IL-2, IL-4, IL-6, IL-8, IL-10, IL-13, IL-18, IL-12p70/IL-12A, IL-12p40/IL-12B, IFN-α, IFN-γ, GM-CSF/CSF2, CCL2/MCP-1, MIP1a/CCL3, TNF-α, MX1, OAS1, ISG15) along with two housekeeping gene controls, 18S and GAPDH, was determined. Target gene expression in each sample was determined by relative quantification (RQ) using the comparative Ct (ΔΔCT) method. This method measures the Ct difference (ΔCT) between target gene and the housekeeping genes (18S & GAPDH), then compares the ΔCT values of treated samples to DMSO-treated control samples. The mean ΔCT value of the DMSO-treated control from two independent DMSO-treated control samples was used. The relative expression level of target gene was calculated by using the equation:
relative expression=2^−ΔΔCT
The subject of data set [4] is mouse splenocytes. The data set is described as follows: IFN-γ ELISpot in mouse splenocytes. Format: cell-based, C57BL/6J mice. How it is done: Production of IFN-γ in response to infection or other stimuli is a hallmark of innate and adaptive immunity. To measure the effect of direct immune stimulation, freshly isolated splenocytes from three C57BL/6J mice were seeded in ELISpot plates pre-coated with anti-IFN-γ antibody (Mabtech, #3321-4AST-2) at 1 million splenocytes per well in OptiVitro® T Cell Serum-free Medium (Excellbio, Cat #TE000-N021). […] Detection of the IFN-γ spot-forming cells was performed according to the manufacture's protocol. Briefly, cells were removed from the ELISpot plates. After washing with PBS, the ELISpot plates were incubated with […] of the R4-6A2-biotin detection antibody for 2 hours at room temperature (RT) and then with streptavidin-ALP (1:1000) at RT for 1 hour. BCIP/NBT chromogen substrate solution was added to the plates until distinct spots emerged. The spots (IFN-γ-secreting cells) were counted using an AID ELISPOT reader.

Data set [5] deals with NFκB. The data set is described as follows: NFκB luciferase reporter gene assay in HeLa-NFκB luciferase reporter cell line. Type of data set: cell-based. Conditions: 16 h, 37 °C, luciferase/CTG normalized; read-out: NFκB-luc HeLa cells EC50. The method, then:
The PKC activator compounds were evaluated for their effect on NFκB expression using a luciferase reporter gene expression system. (The indicators “K-101,” “K101” and “K-101A” may be used interchangeably in this disclosure and appended figures).
A HeLa-NFκB luciferase reporter cell line (Wuxi Biology) was used to assess a group of PKC activator compounds for their ability to activate NFκB-driven transcription. Two sets of cells at 20000 cells/well were plated, grown overnight, and then treated for 16 h at 37 °C with DMSO, 6 doses of each compound, or TNF-α (final concentration of 10 ng/mL, positive control) in triplicates. One set of cells was assayed for luciferase activity (Promega, Cat #E1500) and the other set was assayed to determine the number of viable cells (for cell number normalization) using CellTiter-Glo (CTG) kit (Promega, Cat #G7570) according to manufacture's procedures. Normalized data (luciferase value/CTG value) were analyzed using GraphPad Prism5 to calculate EC50 for each compound (see Table 3).
Background: Reporter assays use an easily measured gene product as a stand-in for the process of interest.

In data set [6] the test system is antigen-specific antibody as well as T cell responses. As to conditions: in vivo; Oh et al. 2014; cited from earlier work.
Data set [7] has as its system NFκB. As to conditions: in vitro, TLR5-dependent and -independent; Oh et al. 2014; cited from earlier work.
The mark [8] stands for this setting: 0.03 μM, vs DMSO, 240 min, 0.03 µM.
Setting [9] is: 0.10 μM, vs DMSO, 240 min, 0.1 µM.

As to `CCC/C=C/C=C/C(=O)O[C@H]1/C(=C/C(=O)OC)C[C@H]2C[C@H]([C@@H](C)O)OC(=O)C[C@H](O)C[C@@H]3C[C@H](OC(C)=O)C(C)(C)[C@](O)(C[C@@H]4C/C(=C/C(=O)OC)C[C@H](/C=C/C(C)(C)[C@]1(O)O2)O4)O3` [Bryostatin], the “chemokine expression in DC cells” value in data set [1] was “induces chemokine expression in DC cells”. The “antigen-specific T cell responses from a peptide-based vaccine” value in data set [2] was “stimulates an antigen-specific T cell responses”.
For orientation: EC50 means the concentration at which the effect is half-maximal. On to `CC1=C[C@H]2[C@@]3(O)[C@H](C)C[C@]4(OC(=O)C(N)CCCCCCc5ccccc5)[C@H]([C@@H]3C=C(CO)C[C@]2(O)C1=O)C4(C)C` (some centres unmarked), for which the “ISG15 gene relative expression” value was 0.97 in data set [3] (0.03 μM, vs DMSO) and 1.16 in data set [3] (setting [9]). The “MX1 gene relative expression” value in data set [3] (0.03 μM, vs DMSO) came to 0.65; in data set [3] (setting [9]), 0.72. Moreover, the results for the “CCL2 gene relative expression” value in data set [3] (setting [8]) and in data set [3] (setting [9]) were 4.55 and 3.12, respectively. Also, the “GM-CSF gene relative expression” value in data set [3] (setting [8]) stood at 1.89; in data set [3] (setting [9]), 7.74. The figures for the “IFN-α gene relative expression” value in data set [3] (setting [8]) and in data set [3] (setting [9]) were 1.66 and 0.73, respectively. Also, the “IFNγ gene relative expression” value in data set [3] (setting [8]) worked out at 1.62; in data set [3] (setting [9]) it was 3.47. The “IL-1β gene relative expression” value in data set [3] (setting [8]) came out at 0.54; in data set [3] (setting [9]) it was 1.58. The “IL-2 gene relative expression” value in data set [3] (setting [8]) stood at 1.71; in data set [3] (setting [9]), 7.65. Further, the “IL-6 gene relative expression” value in data set [3] (setting [8]) worked out at 0.74. For the same compound, the “IL-8 gene relative expression” value is given as 0.80 in data set [3] (setting [8]) and 0.53 in data set [3] (setting [9]). Further, the “IL-10 gene relative expression” value in data set [3] (setting [8]) came to 1.27; in data set [3] (setting [9]), 0.48. For the same compound, the “IL-12p40 gene relative expression” value in data set [3] (setting [8]) is given as 0.74. For the same compound, the entries for the “IL-12p70 gene relative expression” value in data set [3] (setting [8]) and in data set [3] (setting [9]) were 1.02 and 0.93, respectively. The figures for the “IL-13 gene relative expression” value in data set [3] (setting [8]) and in data set [3] (setting [9]) were 0.40 and 47.45, respectively. Also, the “IL-18 gene relative expression” value in data set [3] (setting [8]) is 0.47; in data set [3] (setting [9]), 0.09. Further, the figures for the “MIP1a (CCL3) gene relative expression” value in data set [3] (setting [8]) and in data set [3] (setting [9]) were 1.86 and 2.39, respectively. Further, the “OAS1 gene relative expression” value in data set [3] (setting [8]) was found to be 0.64; in data set [3] (setting [9]) it was 0.55. Moreover, the “TNF-α gene relative expression” value in data set [3] (setting [8]) was 1.38; in data set [3] (setting [9]) it was 4.04. In addition, the “IL-4 gene relative expression” value in data set [3] (setting [9]) is 1.61. The fold induction at 0.3 µM in data set [3] (Homo sapiens, PBMC, read-out: CCL2 gene relative expression, 0.3 μM, 4 h, vs DMSO) came to 2.09; in data set [3] (Homo sapiens, PBMC, read-out: GM-CSF gene relative expression, 0.3 μM, 4 h, vs DMSO), 10.5; in data set [3] (Homo sapiens, PBMC, read-out: IFN-α gene relative expression, 0.3 μM, 4 h, vs DMSO) it was 0.95; in data set [3] (Homo sapiens, PBMC, read-out: IFNγ gene relative expression, 0.3 μM, 4 h, vs DMSO), 18.6; in data set [3] (Homo sapiens, PBMC, read-out: IL-1β gene relative expression, 0.3 μM, 4 h, vs DMSO), 1.53; in data set [3] (Homo sapiens, PBMC, read-out: IL-2 gene relative expression, 0.3 μM, 4 h, vs DMSO), 3.41. Moreover, the fold induction at 0.3 µM in data set [3] (Homo sapiens, PBMC, read-out: IL-4 gene relative expression, 0.3 μM, 4 h, vs DMSO) stood at 2.57; in data set [3] (Homo sapiens, PBMC, read-out: IL-6 gene relative expression, 0.3 μM, 4 h, vs DMSO) it was 4.85; in data set [3] (Homo sapiens, PBMC, read-out: IL-8 gene relative expression, 0.3 μM, 4 h, vs DMSO), 0.59; in data set [3] (Homo sapiens, PBMC, read-out: IL-10 gene relative expression, 0.3 μM, 4 h, vs DMSO) it was 0.06; in data set [3] (Homo sapiens, PBMC, read-out: IL-12p40 gene relative expression, 0.3 μM, 4 h, vs DMSO), 0.69; in data set [3] (Homo sapiens, PBMC, read-out: IL-12p70 gene relative expression, 0.3 μM, 4 h, vs DMSO) it was 0.61. For the same compound, the fold induction at 0.3 µM in data set [3] (Homo sapiens, PBMC, read-out: IL-13 gene relative expression, 0.3 μM, 4 h, vs DMSO) is 78.9; in data set [3] (Homo sapiens, PBMC, read-out: IL-18 gene relative expression, 0.3 μM, 4 h, vs DMSO), 0.04; in data set [3] (Homo sapiens, PBMC, read-out: ISG15 gene relative expression, 0.3 μM, 4 h, vs DMSO) it was 1.14; in data set [3] (Homo sapiens, PBMC, read-out: MIP1a (CCL3) gene relative expression, 0.3 μM, 4 h, vs DMSO) it was 3.37; in data set [3] (Homo sapiens, PBMC, read-out: MX1 gene relative expression, 0.3 μM, 4 h, vs DMSO), 0.57; in data set [3] (Homo sapiens, PBMC, read-out: OAS1 gene relative expression, 0.3 μM, 4 h, vs DMSO), 0.42. Further, the fold induction at 0.3 µM in data set [3] (Homo sapiens, PBMC, read-out: TNF-α gene relative expression, 0.3 μM, 4 h, vs DMSO) came to 4.13. The fold induction at 0.1 µM in data set [3] (Homo sapiens, PBMC, read-out: IL-12p40 gene relative expression, 0.10 μM, 4 h, vs DMSO) turned out to be 0.45. The “IFN-γ secreting cells/million splenocytes” value is on record as 245 cells/million splenocytes in data set [4] (60 nM, 24 h, Mouse 1); 137 cells/million splenocytes in data set [4] (60 nM, 24 h, Mouse 2); 110 cells/million splenocytes in data set [4] (60 nM, 24 h, Mouse 3); “saturated” in data set [4] (200 nM, 24 h, Mouse 1); “saturated” in data set [4] (200 nM, 24 h, Mouse 2); “saturated” in data set [4] (200 nM, 24 h, Mouse 3). The “dose-response of IFN-γ production” value in data set [4] (60 and 200 nM, in words) is recorded as “a trend of dose-response”. In data set [4] (Splenocyte, mouse splenocytes, 24 h, read-out: concentration (as low as) at which IFN-γ production was stimulated), the minimal effective concentration is 0.06 µM. In addition, the EC50 in data set [5] lay within 10 to 30 nM.
As for `CCCCCCCCCCCCCC(=O)O[C@@H]1[C@@H](C)[C@@]2(O)[C@@H](C=C(CO)C[C@]3(O)C(=O)C(C)=C[C@@H]23)[C@@H]2C(C)(C)[C@]12OC(C)=O` [PMA, Phorbol 12-myristate 13-acetate], the “antigen-specific antibody as well as T cell responses” value in data set [6] is on record as “boosts antigen-specific antibody as well as T cell responses in vivo”. The “PKC-dependent NFκB activation” value in data set [7] is given as “induce PKC-dependent NFκB activation”.
